{"source": "paper PMC10569260", "about": "(Nature methods, 2023)", "key": {"locomotion": {"test_system": "locomotion", "assay": "Open field locomotion with infusion / in vivo uncaging in the VTA", "parameters": "species or system mouse", "conditions": "naloxone 3 mg/kg intraperitoneal before CNV-Y-DAMGO infusion and light"}, "[1]": {"test_system": "inhibitory synaptic transmission onto CA1 pyramidal neurons (native opioid receptors)", "type": "cell-based, mouse", "conditions": "CTAP 1 μM, with CNV-Y-DAMGO uncaging"}}, "data": [{"molecule": "C=CCN1CC[C@]23c4c5ccc(O)c4O[C@H]2C(=O)CC[C@@]3(O)[C@H]1C5", "note": "[naloxone]", "values": [{"measurement": "effect on locomotor response to DAMGO photorelease", "setting": "locomotion", "value": "strongly attenuated"}]}, {"molecule": "CTAP", "values": [{"measurement": "effect on optically-evoked suppression of synaptic transmission", "setting": "[1]", "value": "completely blocked"}]}]}
